Laboratory results taken from publication PMC7311425, “DREAM-in-CDM Approach and Identification of a New Generation of Anti-inflammatory Drugs Targeting mPGES-1” (Scientific Reports, 2020).
Values joined by “and” are separate entries in the source; they are usually repeats but may differ in a detail not shown here. Identical values can stand only once. “Also recorded” adds a separate entry of the source. Like-named read-outs stand apart in the source and are kept apart here. Values belong to the molecule of their own block, whether it stands above or below them.

Legend:
[1] = target: T1, human mPGES-1 (Homo sapiens, UniProt O14684); assay: in vitro inhibitory activity against human mPGES-1 (PGE2 ELISA assay); format: biochemical; conditions: for inhibition at 10 µM: read-out: Inhibition (%) at 10 µM; for IC50: human mPGES-1
T1 construct: made in house
T1 sequence (O14684 1-152): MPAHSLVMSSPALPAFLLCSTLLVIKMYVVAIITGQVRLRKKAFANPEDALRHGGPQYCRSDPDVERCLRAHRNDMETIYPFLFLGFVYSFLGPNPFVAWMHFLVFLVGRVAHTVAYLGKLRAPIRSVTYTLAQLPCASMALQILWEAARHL
Protocol: The above computational predictions were followed by in vitro activity assays for their actual inhibitory activity against human mPGES-1 using an ELISA assay described in our previous reports[32]–[34]. […] Specifically, 15 FDA-approved drugs (see Fig. S1 of the Supporting Information for the molecular structures) were assayed for their inhibitory activity against human mPGES-1.
(§1) The protocol for the protein preparation and in vitro activity assays were the same as described previously[51]–[54]. The enzyme activity assays were performed on ice in 1.5 ml microfuge tubes by using the expressed human or mouse mPGES-1. The reaction mixture contained: 0.2 M Na2HPO4/NaH2PO4, pH 7.2, 10 µL; 0.1 M GSH, 2.5 µL; diluted microsomal enzyme (80 µg/mL), 1 µL; PGH2 (0.31 mM in DMF), 5 µL; 1 µL inhibitor; and H2O in a final reaction volume of 100 µL. PGH2 was stored in dry ice and used to initiate the reaction. Compounds were incubated with the enzyme for 15 min at room temperature before the addition of cold PGH2 ([…]) to initiate the enzyme reaction. After 30 s, 10 µL of SnCl2 (40 mg/mL) in ethanol was added to stop the reaction. The non-enzymatic conversion of PGH2 to PGE2 was performed in the same buffer devoid of enzyme. The reaction mixture was placed on ice until PGE2 production was determined by the PGE2 enzyme immunoassay as described earlier. IC50 values of the inhibitors were calculated by using the GraphPad Prism 7.

[2] = predicted Cmax in human organs from rat organ/plasma ratios; format: in vivo; conditions: 50 mg, from rat organ/plasma ratios [56]
Excerpt: In addition, the reported ratios of Cmax values in various organs of rat to Cmax in rat plasma, along with the Cmax values in human plasma, were used to predict the Cmax values in the corresponding organs of human corresponding to the Cmax values in human plasma.

[3] = test system: air-pouch PGE2 level; assay: mouse air-pouch model of inflammation (carrageenan), air-pouch PGE2 by ELISA; format: in vivo
Protocol: The air-pouch fluid collected from mice were analyzed by ELISA assay for the PGE2 concentrations. GraphPad Prism 7 software (GraphPad Software, La Jolla, CA) was used to perform the one-way analysis of variance (ANOVA) with post hoc tests.
All the animal experiments were conducted in our animal laboratories in the University of Kentucky’s Division of Laboratory Animal Resources (DLAR) facility (PHS assurance number A3336-01; USDA number 61-R-0002; AAALAC, Intl. Unit # 13) following the guidelines and regulations of the AAALAC and National Institutes of Health (NIH). The animal procedure used in this project was approved by the University of Kentucky’s Institutional Animal Care and Use Committee (IACUC). The air-pouch model of inflammation[23],[55] is widely used for determining the in vivo effectiveness of inhibitors of prostaglandin synthesis. Air pouches were produced by duplicate injections of 3 mL of sterile air under the skin on the back of mice. […] The air-pouch fluid samples were analyzed for PGE2 by the same ELISA method used in the in vitro enzyme activity assay mentioned above.
GraphPad Prism 7 software (GraphPad Software, La Jolla, CA) was used to perform the one-way analysis of variance (ANOVA) with post hoc testing, allowing us to examine the significance of the difference in the in vivo activity data between each pair of dose conditions. p < 0.05 was considered statistically significant.

[4] = human, read-out: Cmax (µM) in plasma, cited from earlier work
[5] = target: T1, human mPGES-1; assay: mPGES-1 enzyme activity at various GSH concentrations, Lineweaver-Burk plots; format: biochemical
Protocol: as §1

[6] = cited from earlier work
[7] = test system: mixed COX-1 and COX-2 (COX-1/2); assay: COX (ovine/human) inhibitor screening assay, mixed COX-1 and COX-2; format: biochemical; conditions: 100 µM; equal amounts of COX-1 and COX-2
Excerpt: We used a mixture of equal amounts of purified COX-1 and COX-2 proteins and followed the protocol recommended by the vendor.

[8] = mouse, in vivo; cited from earlier work

- inhibition at 10 µM ([1]; 10 µM, single concentration): 19%
SMILES: CC(C)(C)C(=O)OCOP(=O)(COCCn1cnc2c(N)ncnc21)OCOC(=O)C(C)(C)C [Adefovir Dipivoxil]

- inhibition at 10 µM ([1]; 10 µM, single concentration): 22%
SMILES: COc1cc2nc(N(C)CCCNC(=O)C3CCCO3)nc(N)c2cc1OC (stereo not drawn) [Alfuzosin]

- inhibition at 10 µM ([1]; 10 µM, single concentration): 47%
- IC50 [1]: 29.7 ± 6.3 µM
SMILES: COCC1=C(C(=O)O)N2C(=O)[C@@H](NC(=O)/C(=N\OC)c3csc(N)n3)[C@H]2SC1 [Cefpodoxime]

- inhibition at 10 µM ([1]; 10 µM, single concentration): 21%
SMILES: COc1cc2nc(N3CCN(C(=O)C4COc5ccccc5O4)CC3)nc(N)c2cc1OC (stereo not drawn) [Doxazosin]

- inhibition at 10 µM ([1]; 10 µM, single concentration): 36%
SMILES: CC1(C)S[C@@H]2[C@H](NC(=O)COc3ccccc3)C(=O)N2[C@H]1C(=O)O [Penicillin V Potassium]

- inhibition at 10 µM ([1]; 10 µM, single concentration): 54%
- IC50 [1]: 9 ± 2.3 µM
SMILES: CCOC(=O)[C@H](CCc1ccccc1)N[C@@H](C)C(=O)N1[C@H](C(=O)O)C[C@H]2CCCC[C@@H]21 [Trandolapril]

Further lines, the molecule ahead of its results:

SMILES: COc1cc(C)c(/C=C/C(C)=C/C=C/C(C)=C/C(=O)O)c(C)c1C [Acitretin]
- inhibition at 10 µM ([1]; 10 µM, single concentration): 83%
- IC50 [1]: 3.5 ± 1.6 µM

SMILES: CCCCC[C@H](O)/C=C/[C@H]1[C@H](O)CC(=O)[C@@H]1CCCCCCC(=O)O [Alprostadil]
- inhibition at 10 µM ([1]; 10 µM, single concentration): 11%

SMILES: C=C1/C(=C\C=C2/CCC[C@]3(C)[C@@H]([C@H](C)/C=C/[C@@H](O)C4CC4)CC[C@@H]23)C[C@@H](O)C[C@@H]1O [Calcipotriene]
- inhibition at 10 µM ([1]; 10 µM, single concentration): 68%
- IC50 [1]: 3 ± 1.1 µM

SMILES: CCCCC[C@H](O)/C=C/[C@H]1[C@H](O)CC(=O)[C@@H]1C/C=C\CCCC(=O)O [Dinoprostone]
- inhibition at 10 µM ([1]; 10 µM, single concentration): 4%

SMILES: OCCN(CCO)c1nc(N2CCCCC2)c2nc(N(CCO)CCO)nc(N3CCCCC3)c2n1 [Dipyridamole]
- inhibition at 10 µM ([1]; 10 µM, single concentration): 36%

SMILES: C[C@]12CC[C@@H]3c4ccc(OC(=O)N(CCCl)CCCl)cc4CC[C@H]3[C@@H]1CC[C@@H]2OP(=O)(O)O [Estramustine Phosphate]
- inhibition at 10 µM [1]: 36%

SMILES: CS(=O)(=O)CCNCc1ccc(-c2ccc3ncnc(Nc4ccc(OCc5cccc(F)c5)c(Cl)c4)c3c2)o1 [Lapatinib]
- Cmax ([2]; read-out: Predicted Cmax (µM) Kidney): ~1.3 µM
- Cmax ([2]; read-out: Predicted Cmax (µM) Lung): ~2 µM
- inhibition at 10 µM ([1]; 10 µM, single concentration): 99%
- IC50 [1]: 0.8 µM and ~0.8 µM
- effect on air-pouch PGE2 level ([3]; carrageenan-treated mice, PO, 24 hours): significantly and dose-dependently decreased
- effectiveness in comparison with celecoxib 50 mg/kg (PO) ([3]; lapatinib 50 mg/kg PO): less effective
- difference in in vivo potency versus 50 mg/kg celecoxib (PO) ([3]; lapatinib 100 mg/kg PO): no significant difference
- Cmax ([4]; 10 mg, GW572016 ditosylate monohydrate oral suspension, ref Bence et al.[38]): 0.019 µM
- Cmax ([4]; 25 mg, GW572016 ditosylate monohydrate oral suspension, ref Bence et al.[38]): 0.04 µM
- Cmax ([4]; 50 mg, GW572016 ditosylate monohydrate oral suspension, ref Bence et al.[38]): 0.124 µM
- Cmax ([4]; 100 mg, GW572016 ditosylate monohydrate oral suspension, ref Bence et al.[38]): 0.213 µM
- Cmax ([4]; 175 mg, GW572016 ditosylate monohydrate oral suspension, ref Bence et al.[38]): 0.38 µM
- Cmax ([4]; 250 mg, GW572016 ditosylate monohydrate oral suspension, ref Bence et al.[38]): 0.546 µM
- Cmax ([4]; 500 mg, 100-mg and 250-mg tablets, daily oral, ref clinical trial EGF10004): 1.76 µM
- Cmax ([4]; 650 mg, 100-mg and 250-mg tablets, daily oral, ref clinical trial EGF10004): 2.24 µM
- Cmax ([4]; 900 mg, 100-mg and 250-mg tablets, daily oral, ref clinical trial EGF10004): 2.93 µM
- Cmax ([4]; 1000 mg, 100-mg and 250-mg tablets, daily oral, ref clinical trial EGF10004): 3.18 µM
- Cmax ([4]; 1250 mg orally once daily, ref clinical trial NCT00477464): 6.06 µM
- Cmax ([4]; 1500 mg, 6 pills at 250 mg once oral daily, average of 36 data points from 6 subgroups, ref clinical trial NCT00486954 and NCT01138046): 8.6 µM
- effect on Vmax ([5]; 1 µM lapatinib): did not significantly change
- mode of inhibition with respect to GSH ([5]; 1 µM lapatinib, GSH at different concentrations): competes with co-factor GSH; also recorded: GSH-competitive inhibitor
- y-intercept of Lineweaver-Burk plot (1/Vmax) ([5]; in the presence of 1 µM lapatinib (0.15 ± 0.02 in the absence)): 0.18 ± 0.02
- dose-limiting toxicity (DLT) ([6]; Phase I dose-escalation, up to 7000 mg per day in twice-daily dosing): no dose-limiting toxicity
- adverse effects in phase I clinical trials ([6]; non-cancer patients): did not cause any serious adverse effects
- inhibition of COX-1/2 [7]: did not significantly inhibit

SMILES: C[C@]12C=CC(=O)C=C1CC[C@@H]1[C@@H]2[C@@H](O)C[C@@]2(C)[C@H]1CC[C@]2(O)C(=O)CO [Prednisolone]
- inhibition at 10 µM ([1]; 10 µM, single concentration): 44%

SMILES: Cc1ccccc1C(=O)Nc1ccc(C(=O)N2CCCC(O)c3cc(Cl)ccc32)c(C)c1 (stereo not drawn) [Tolvaptan]
- inhibition at 10 µM ([1]; 10 µM, single concentration): 52%
- IC50 [1]: 10.2 ± 2.5 µM

SMILES: Cc1ccc(-c2cc(C(F)(F)F)nn2-c2ccc(S(N)(=O)=O)cc2)cc1 [celecoxib]
- toxicity in mice [8]: significant toxicity
